ChEMBL document CHEMBL1140777, “3,4-Diamino-2,5-thiadiazole-1-oxides as potent CXCR2/CXCR1 antagonists” (Bioorg Med Chem Lett, 2008)

Tests used:
[1] = target: Interleukin-8 receptors, CXCR1/CXCR2 (Homo sapiens) (UniProt P25025+P25024); experiment: Antagonist activity at CXCR1/CXCR2 in human PMN cells assessed as inhibition of GROalpha-mediated myeloperoxidase release at 1 uM; format: functional, cell-based; parameters: scale not given: the % may be the effect or the level left
[2] = target: T1, C-X-C chemokine receptor type 2 (Homo sapiens, UniProt P25025); experiment: Binding affinity to CXCR2
T1 sequence (P25025 whole entry): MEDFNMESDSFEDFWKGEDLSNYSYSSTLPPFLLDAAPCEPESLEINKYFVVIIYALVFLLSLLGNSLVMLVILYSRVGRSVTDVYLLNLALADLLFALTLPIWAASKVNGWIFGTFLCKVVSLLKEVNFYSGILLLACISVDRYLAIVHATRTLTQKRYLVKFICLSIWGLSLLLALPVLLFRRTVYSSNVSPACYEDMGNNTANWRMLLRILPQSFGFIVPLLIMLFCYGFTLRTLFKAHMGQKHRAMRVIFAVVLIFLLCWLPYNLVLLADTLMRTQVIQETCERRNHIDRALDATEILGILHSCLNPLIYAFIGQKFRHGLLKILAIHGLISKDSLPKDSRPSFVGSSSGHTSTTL

[3] = target: T2, C-X-C chemokine receptor type 1 (Homo sapiens, UniProt P25024); experiment: Binding affinity to CXCR1
T2 sequence (P25024 whole entry): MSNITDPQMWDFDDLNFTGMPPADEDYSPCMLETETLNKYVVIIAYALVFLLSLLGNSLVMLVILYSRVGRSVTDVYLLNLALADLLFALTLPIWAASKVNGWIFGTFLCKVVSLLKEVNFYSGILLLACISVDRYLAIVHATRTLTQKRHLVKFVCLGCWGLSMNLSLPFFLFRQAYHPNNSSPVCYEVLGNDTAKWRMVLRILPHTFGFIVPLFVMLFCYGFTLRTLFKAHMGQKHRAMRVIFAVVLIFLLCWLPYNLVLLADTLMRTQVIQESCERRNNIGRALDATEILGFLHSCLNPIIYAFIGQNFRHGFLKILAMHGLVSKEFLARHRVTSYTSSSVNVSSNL

[4] = target: T3, Interleukin-8 receptors, CXCR1/CXCR2 (Homo sapiens, UniProt P25025+P25024); experiment: Antagonist activity at CXCR1/CXCR2 in human PMN cells assessed as inhibition of GROalpha-mediated myeloperoxidase release; format: functional, cell-based
T3 sequence (P25025 whole entry): T1 sequence (P25025 whole entry)
T3 sequence (P25024 whole entry): T2 sequence (P25024 whole entry)

[5] = target: T3, Interleukin-8 receptors, CXCR1/CXCR2; experiment: Antagonist activity at CXCR1/CXCR2 in human PMN cells assessed as inhibition of IL8-mediated myeloperoxidase release; format: functional, cell-based
[6] = Drug level in po dosed rat blood; format: ADME, organism-based; conditions: read-out: Activity

SMILES | Activity [1] | Ki [2] | Ki [3] | IC50 [4] | IC50 [5] | AUC [6]
Cc1ccc([C@H](NC2=NS(=O)(=O)N=C2Nc2cccc(C(=O)N(C)C)c2O)C2(C)CC2)o1 | -11% | 0.184 µM | 1.1 µM |  |  | 
CC[C@@H](Nc1n[s+]([O-])nc1Nc1cccc(C(=O)N(C)C)c1O)c1ccccc1 (stereo not given in full) |  | 0.005 µM | 1.22 µM | 0.331 µM |  | 
CN(C)C(=O)c1cccc(NC2=NS(=O)(=O)N=C2N[C@@H](c2ccc3c(c2)OCCO3)C(C)(C)C)c1O | -12% |  |  |  |  | 
CC[C@@H](NC1=NS(=O)(=O)NC1=Nc1cccc(C(=O)N(C)C)c1O)c1ccc2c(c1)OCCN2C |  | 0.009 µM | 2.8 µM |  |  | 
CN(C)C(=O)c1cccc(NC2=NS(=O)(=O)N=C2N[C@@H](c2ccco2)C(C)(C)C)c1O | 3% | 0.011 µM | 0.061 µM |  |  | 
Cc1ccc([C@H](Nc2n[s+]([O-])nc2Nc2cccc(C(=O)N(C)C)c2O)C(C)(C)C)o1 (stereo not given in full) |  | 0.005 µM | 0.038 µM | 0.027 µM | 0.08 µM | 
Cc1cc([C@H](Nc2n[s+]([O-])nc2Nc2cccc(C(=O)N(C)C)c2O)C(C)C)oc1C (stereo not given in full) |  |  |  | 0.013 µM | 0.054 µM | 119 µM·h
CN(C)C(=O)c1cccc(N=C2NS(=O)(=O)N=C2N[C@@H](c2ccc3c(c2)OCCO3)C(C)(C)C)c1O |  | 0.024 µM | 2 µM |  |  | 1.87 µM·h
CN(C)C(=O)c1cccc(Nc2n[s+]([O-])nc2N[C@@H](c2ccco2)C(C)(C)C)c1O (stereo not given in full) |  | 0.0023 µM | 0.021 µM | 0.008 µM | 0.02 µM | 
CN(C)C(=O)c1cccc(Nc2n[s+]([O-])nc2NCc2ccc3c(c2)OCO3)c1O (stereo not given) |  | 0.015 µM | 10 µM |  |  | 
CC[C@@H](NC1=NS(=O)(=O)N=C1Nc1cccc(C(=O)N(C)C)c1O)c1ccccc1 | -39% |  | 8.99 µM |  | 8.99 µM | 2.3 µM·h
CC[C@@H](Nc1n[s+]([O-])nc1Nc1cccc(C(=O)N(C)C)c1O)c1cc(C(C)C)co1 (stereo not given in full) |  | 0.009 µM | 0.061 µM | 0.008 µM | 0.015 µM | 
CC(C)[C@@H](Nc1n[s+]([O-])nc1Nc1cccc(C(=O)N(C)C)c1O)c1cccc(F)c1 (stereo not given in full) |  | 0.008 µM | 4.01 µM |  |  | 
CN(C)C(=O)c1cccc(Nc2n[s+]([O-])nc2N[C@@H](c2ccco2)C2(C)CC2)c1O (stereo not given in full) |  | 0.012 µM | 0.375 µM | 0.132 µM | 0.4 µM | 
CC[C@@H](NC1=NS(=O)(=O)N=C1Nc1cccc(C(=O)N(C)C)c1O)c1ccc(C)o1 |  |  | 5.95 µM |  |  | 
CC(C)[C@@H](NC1=NS(=O)(=O)N=C1Nc1cccc(C(=O)N(C)C)c1O)c1cccc(F)c1 |  | 0.011 µM | 0.652 µM |  |  | 
CN(C)C(=O)c1cccc(NC2=NS(=O)(=O)N=C2N[C@@H](c2ccc3c(c2)OCO3)C(C)(C)C)c1O |  | 0.0047 µM | 0.046 µM |  |  | 
CN(C)C(=O)c1cccc(Nc2n[s+]([O-])nc2N[C@@H](c2ccccc2)C(C)(C)C)c1O (stereo not given in full) |  | 0.004 µM | 0.13 µM | 0.028 µM | 0.142 µM | 
CCC(C)(C)[C@@H](NC1=NS(=O)(=O)N=C1Nc1cccc(C(=O)N(C)C)c1O)c1ccco1 | -19% | 0.016 µM | 0.188 µM |  |  | 
CC[C@@H](Nc1n[s+]([O-])nc1Nc1cccc(C(=O)N(C)C)c1O)c1ccc(C)o1 (stereo not given in full) |  | 0.003 µM | 0.234 µM | 0.133 µM | 0.539 µM | 
CN(C)C(=O)c1cccc(NC2=NS(=O)(=O)N=C2N[C@@H](c2ccc(Cl)o2)C(C)(C)C)c1O |  | 0.009 µM | 0.129 µM |  |  | 
C[C@H](Nc1n[s+]([O-])nc1Nc1cccc(C(=O)N(C)C)c1O)C(C)(C)C (stereo not given in full) |  | 0.058 µM | 0.484 µM | 0.038 µM | 0.684 µM | 5.28 µM·h
